From the supplement of paper PMC10307832

Experiments:
Experiment in all cases: relative viability (nuclei count vs DMSO), 5 days (fraction); higher = more cells survive
[1] = compound: O=C(O)c1ccc2c(c1)nc(Nc1cccc(Cl)c1)c1ccncc12 [Silmitasertib] + N=C(N)NC(=N)NCCc1ccccc1 [Phenformin] (partner 250 µM)
Method in brief: (§1)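 Lung cancer cell lines were pin-tool dosed in 1536-well plates on the day after seeding, with either a lone drug or a fixed anchor-drug dose plus five library-drug doses (not always all listed) in √10 steps. Nuclei were counted on 4× images after 5 days. Relative viability is the ratio of treated-well to vehicle-well nuclei counts, with each value a median of duplicate plates.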

[2] = compound: O=C(O)c1ccc2c(c1)nc(Nc1cccc(Cl)c1)c1ccncc12 [Silmitasertib] + C[C@]1(O)C[C@@H](c2nc(-c3ccc4ccc(-c5ccccc5)nc4c3)c3c(N)nccn32)C1 [Linsitinib] (partner 1 µM)
Method in brief: as §1

[3] = compound: O=C(O)c1ccc2c(c1)nc(Nc1cccc(Cl)c1)c1ccncc12 [Silmitasertib] + CC(C)C[C@H](NC(=O)[C@H](Cc1ccccc1)NC(=O)c1cnccn1)B(O)O [Bortezomib] (partner 0.002 µM)
Method in brief: as §1

[4] = compound: O=C(O)c1ccc2c(c1)nc(Nc1cccc(Cl)c1)c1ccncc12 [Silmitasertib] + Cc1cc(Nc2cc(N3CCN(C)CC3)nc(Sc3ccc(NC(=O)C4CC4)cc3)n2)n[nH]1 [Tozasertib] (partner 0.1 µM)
Method in brief: as §1

[5] = compound: O=C(O)c1ccc2c(c1)nc(Nc1cccc(Cl)c1)c1ccncc12 [Silmitasertib] + Nc1nc2[nH]cc(CCc3ccc(C(=O)N[C@@H](CCC(=O)O)C(=O)O)cc3)c2c(=O)[nH]1 [Pemetrexed] (partner 0.2 µM)
Method in brief: as §1

Row | Cell Line | relative viability ([1]; first compound 0.04 µM) | relative viability ([1]; first compound 0.4 µM) | relative viability ([1]; first compound 1.265 µM) | relative viability ([1]; first compound 4 µM) | relative viability ([2]; first compound 0.04 µM) | relative viability ([2]; first compound 0.4 µM) | relative viability ([2]; first compound 1.265 µM) | relative viability ([2]; first compound 4 µM) | relative viability ([3]; first compound 0.04 µM) | relative viability ([3]; first compound 0.4 µM) | relative viability ([3]; first compound 1.265 µM) | relative viability ([3]; first compound 4 µM) | relative viability ([4]; first compound 0.04 µM) | relative viability ([4]; first compound 0.4 µM) | relative viability ([4]; first compound 1.265 µM) | relative viability ([4]; first compound 4 µM) | relative viability ([5]; first compound 0.04 µM) | relative viability ([5]; first compound 0.4 µM) | relative viability ([5]; first compound 1.265 µM) | relative viability ([5]; first compound 4 µM)
1 | EMC-BAC-2 | 0.578 | 0.493 | 0.381 | 0.301 | 0.891 | 0.769 | 0.709 | 0.686 | 1.05 | 0.999 | 1.06 | 0.784 | 0.291 | 0.272 | 0.198 | 0.162 | 0.455 | 0.319 | 0.423 | 0.369
2 | NCI-H661 | 0.287 | 0.339 | 0.283 | 0.276 | 0.646 |  | 0.38 | 0.577 | 0.852 |  | 0.734 | 1.1 | 0.346 | 0.368 | 0.334 | 0.364 | 0.93 | 0.966 | 0.865 | 0.666
3 | LK-2 | 0.485 |  | 0.415 | 0.271 | 0.557 | 0.474 | 0.365 | 0.451 |  |  |  |  | 0.165 |  | 0.169 | 0.19 | 0.254 |  | 0.084 | 0.297
4 | NCI-H1563 | 0.711 | 0.714 | 0.655 | 0.627 | 1.32 | 1.22 | 1.17 | 1.16 | 0.932 | 0.903 | 0.844 | 0.821 |  |  |  |  | 0.871 | 0.844 |  | 0.693
5 | NCI-H358 | 0.371 | 0.272 | 0.325 | 0.225 | 0.902 | 0.799 | 0.585 | 0.607 |  |  |  |  | 0.121 | 0.0941 | 0.115 | 0.083 | 0.186 | 0.164 | 0.18 | 0.131
6 | IA-LM |  |  |  |  | 0.657 | 0.559 | 0.717 | 0.236 | 0.879 | 0.632 | 1.01 | 0.586 |  |  |  |  |  |  |  | 
7 | ChaGo-K-1 | 0.532 | 0.349 | 0.446 | 0.319 |  |  |  |  | 1.32 | 0.934 | 0.957 | 0.537 | 0.198 | 0.219 | 0.231 | 0.241 | 0.265 | 0.24 | 0.253 | 0.275
8 | NCI-H2342 | 0.614 | 0.713 | 0.465 | 0.493 |  |  |  |  |  |  |  |  | 0.479 | 0.479 | 0.374 | 0.445 | 0.77 |  | 0.72 | 0.681
9 | SK-MES-1 | 0.752 | 0.582 | 0.434 | 0.27 | 1.18 | 1.13 | 1.11 | 1.09 |  |  |  |  | 1.07 | 1.02 | 0.542 | 0.159 | 1.03 | 1.02 | 0.763 | 0.339
10 | NCI-H2170 | 0.408 | 0.34 | 0.406 | 0.421 |  |  |  |  |  |  |  |  | 0.673 | 0.478 | 0.713 | 0.65 | 0.271 | 0.258 | 0.25 | 0.282
11 | ABC-1 | 0.298 | 0.214 | 0.179 | 0.201 | 0.788 | 1.13 | 0.523 | 0.294 | 0.402 | 0.353 | 0.281 | 0.226 | 0.19 | 0.165 | 0.185 | 0.193 |  |  |  | 
12 | NCI-H1792 | 0.29 | 0.24 | 0.327 | 0.103 | 0.531 | 0.439 | 0.48 | 0.539 | 0.943 | 0.68 | 0.53 | 0.864 |  |  |  |  | 0.772 | 0.78 | 0.78 | 0.331
13 | NCI-H727 | 0.692 | 0.488 | 0.511 | 0.348 | 0.327 | 0.287 | 0.303 | 0.166 | 1 | 0.608 | 0.736 | 0.516 | 0.584 | 0.62 | 0.681 | 0.609 |  |  |  | 
14 | NCI-H1944 | 0.21 | 0.211 | 0.22 | 0.186 | 1.17 | 1.15 | 0.968 | 1.25 |  |  |  |  | 0.259 | 0.266 | 0.237 | 0.308 | 0.551 | 0.447 | 0.615 | 0.77
15 | NCI-H1703 |  |  |  |  | 1.04 | 0.654 | 1.23 | 0.419 | 0.352 | 0.278 | 0.294 | 0.193 |  |  |  |  |  |  |  | 
16 | NCI-H1650 | 0.49 | 0.412 | 0.283 | 0.151 |  |  |  |  | 0.375 | 0.192 | 0.232 | 0.195 | 0.466 | 0.517 | 0.272 | 0.235 | 0.339 | 0.454 | 0.387 | 0.319
17 | NCI-H1395 | 0.495 | 0.436 | 0.49 | 0.373 | 1.14 | 0.919 | 1 | 1.01 |  |  |  |  | 0.742 | 0.559 | 0.68 | 0.623 | 0.975 | 0.756 | 0.841 | 0.654
18 | NCI-H1793 | 0.396 | 0.29 | 0.346 | 0.373 | 1.24 | 0.914 | 0.735 | 0.79 |  |  |  |  | 0.392 | 0.297 | 0.2 | 0.331 | 1.08 | 0.851 | 0.719 | 0.425
19 | NCI-H522 | 0.669 | 0.554 | 0.626 | 0.678 |  |  |  |  |  |  |  |  | 0.611 | 0.464 | 0.541 | 0.574 | 0.986 | 0.846 | 1 | 1.15
20 | SW 900 | 0.817 | 0.34 | 0.452 | 0.24 |  |  |  |  |  |  |  |  | 0.649 | 0.413 | 0.38 | 0.349 | 0.493 | 0.463 | 0.464 | 0.258
